Data as given in patent publication EP2235030B1, “COMPOUND OF THE DISACCHARIDE TYPE COMPOSITION COMPRISING AND METHOD FOR PRODUCING SUCH A COMPOUND” (Université de Picardie Jules Verne, priority 2007, dated 2009).
Marks after values point to notes of the source that are not given here.

Key:
[1] = tested on: Myzus persicae (Sulzer); assay: Aphid neonates reared on artificial diet supplemented with DPS2: demographic parameters; type: in vivo; conditions: for Temps de doublement de la population / Fécondité journalière / Période préreproductive / rm: mean ± SD; for rm: intrinsic rate of population increase
Protocol: (§1) Deux espèces de pucerons Myzus persicae (Sulzer) et Macrosiphum euphorbiae (Thomas) ont été utilisées pour cette étude. Des adultes ont été isolés et placés dans des cages de PVC sur milieu artificiel pendant une journée afin de synchroniser la descendance. Les néonates, âgés de moins de 24 h sont alors placés sur milieu artificiel contenant des concentrations variant de 0 à 100 µg.mL^-1 du composé DPS2, synthétisé précédemment, selon un protocole décrit par Saguez J, Dubois F, Vincent C, Laberche JC, Sangwan-Norreel BS et Giordanengo P (2006), dans l'article intitulé « Differential aphicidal effects of chitinase inhibitors on the polyphagous homopteran Myzus pensicae (Sulzer) » et publié dans Pest Manag Sci 62: 1150-1154. Plusieurs paramètres démographiques sont relevés quotidiennement afin de déterminer la durée du développement larvaire, la mortalité larvaire et la fécondité et de calculer un paramètre synthétique, le rm (taux intrinsèque d'accroissement des populations) et le temps de doublement des populations. Un minimum de 50 pucerons de chaque espèce est testé par traitement et les individus sont suivis quotidiennement. La taille des pucerons a été mesurée une semaine après le début de l'expérience, sous loupe binoculaire à l'aide d'un oculaire biométrique. Les effets du DPS2 sur la survie larvaire sont analysés par un test du χ^2 de Pearson. Une analyse de variance (ANOVA monofactorielle) a été réalisée avec le logiciel Statistica 5.5 (StatSoft®, Tulsa, Oklahoma, USA) pour tester les effets du DPS2 sur les paramètres démographiques des aphides. Les paramètres significativement altérés sont ensuite analysés par un test de Fisher (PLSD) au seuil de significativité P <0,05.
(§2) Dans les tableaux I, II et III qui suivent, les résultats sont exprimés sous la forme : moyenne ± écart-type. L'effet significatif (*) été testé par une analyse de variance monofactorielle (F) à P<0.05. Les valeurs de même rang suivies par une même lettre indiquent qu'il n'existe pas de différence significative d'après le test du PLSD de Fisher (P<0.05).

[2] = tested on: Macrosiphum euphorbiae (Thomas); assay: Aphid neonates reared on artificial diet supplemented with DPS2: demographic parameters and body size; type: in vivo; conditions: for rm: intrinsic rate of population increase
Protocol: as §1, §2

[3] = tested on: pucerons M. persicae et M. euphorbiae; assay: Aphid artificial diet test, statements made for both aphid species without distinction; type: in vivo, Myzus persicae, Macrosiphum euphorbiae
Protocol: as §1

[4] = tested on: chitinases d'insectes et de champignons; conditions: competitive inhibition; cited from earlier work
[5] = DPS2 1 µg.mL^-1 in artificial diet
[6] = DPS2 10 µg.mL^-1 in artificial diet
[7] = DPS2 50 µg.mL^-1 in artificial diet
[8] = DPS2 100 µg.mL^-1 in artificial diet
[9] = DPS2 1 µg.mL^-1 in artificial diet, mean ± SD
[10] = DPS2 10 µg.mL^-1 in artificial diet, mean ± SD
[11] = DPS2 50 µg.mL^-1 in artificial diet, mean ± SD
[12] = DPS2 100 µg.mL^-1 in artificial diet, mean ± SD

With CCCOC1O[C@H](COS(=O)(=O)O)[C@@H](O[C@@H]2O[C@H](CO)[C@@H](O)[C@H](O)[C@H]2NC(C)=O)[C@H](O)[C@H]1OC(C)=O (stereo partly shown) [DPS2] the “Temps de doublement de la population” value ([1]; DPS2 1 µg.mL^-1) was 5,6 ± 1,8^b jours, the “Fécondité journalière” value [1, 5] was 0,99 ± 0,27^a larves.femelles-1.jour-1 and the “Période préreproductive” value [1, 5] was 11,6 ± 1,9^b jours. The “Temps de doublement de la population” value ([1]; DPS2 10 µg.mL^-1) was 5,4 ± 1,2^b b jours, the “Fécondité journalière” value [1, 6] was 0,91 ± 0,28^b larves.femelles-1.jour-1 and the “Période préreproductive” value [1, 6] was 10,9 ± 1,5^a jours. For the same molecule, the “Temps de doublement de la population” value ([1]; DPS2 50 µg.mL^-1) was 5,9 ± 1,6^b b jours, the “Fécondité journalière” value [1, 7] was 0,74 ± 0,24^bc larves.femelles-1.jour-1 and the “Période préreproductive” value [1, 7] was 11,1 ± 1,4^a jours. The “Temps de doublement de la population” value ([1]; DPS2 100 µg.mL^-1) was 6,5 ± 2,0^a jours, the “Fécondité journalière” value [1, 8] was 0,65 ± 0,11^bc larves.femelles-1.jour-1 and the “Période préreproductive” value [1, 8] was 11,9 ± 1,7^b jours. The “durée de la période pré-reproductive (augmentation)” value ([1]; increase versus control diet) was “augmentée d'environ une journée”, the rm ([1]; DPS2 1 µg.mL^-1) was 0,13 ± 0,04^b femelles.femelles^-1 .jours^-1 and the rm ([1]; DPS2 10 µg.mL^-1) was 0,13 ± 0,03^b femelles.femelles^-1 .jours^-1. For the same molecule, the rm ([1]; DPS2 50 µg.mL^-1) was 0,12 ± 0,03^bc femelles.femelles^-1 .jours^-1, the rm ([1]; DPS2 100 µg.mL^-1) was 0,11 ± 0,03^c femelles.femelles^-1 .jours^-1 and the taille des pucerons ([2]; DPS2 1 µg.mL-1 in artificial diet, after 7 days, mean ± SD) was 2,2 ± 0,3^a mm. The “Temps de doublement de la population” value ([2]; DPS2 1 µg.mL^-1, mean ± SD) was 4,7 ± 1,0^ab jours, the “Fécondité journalière” value [2, 9] was 1,16 ± 0,36^a larves.femelles-1 .jour-1 and the “Période préreproductive” value [2, 9] was 11,3 ± 2,1^a jours. The taille des pucerons ([2]; DPS2 10 µg.mL-1 in artificial diet, after 7 days, mean ± SD) was 2,1 ± 0,3^b mm, the “Temps de doublement de la population” value ([2]; DPS2 10 µg.mL^-1, mean ± SD) was 5,5 ± 1,3^b jours and the “Fécondité journalière” value [2, 10] was 1,06 ± 0,34^a larves.femelles-1 .jour-1. The “Période préreproductive” value [2, 10] was 12,1 ± 1,6^a jours, the taille des pucerons ([2]; DPS2 50 µg.mL-1 in artificial diet, after 7 days, mean ± SD) was 1,8 ± 0,2^bc mm and the “Temps de doublement de la population” value ([2]; DPS2 50 µg.mL^-1, mean ± SD) was 8,1 ± 1,6^c jours. The “Fécondité journalière” value [2, 11] was 0,81 ± 0,20^b larves.femelles-1 .jour-1, the “Période préreproductive” value [2, 11] was 13,4 ± 1,2^b jours and the taille des pucerons ([2]; DPS2 100 µg.mL-1 in artificial diet, after 7 days, mean ± SD) was 1,7 ± 0,2^c mm. The “Temps de doublement de la population” value ([2]; DPS2 100 µg.mL^-1, mean ± SD) was 6,5 ± 2,0^c jours, the “Fécondité journalière” value [2, 12] was 0,73 ± 0,22^b larves.femelles-1 .jour-1 and the “Période préreproductive” value [2, 12] was 13,5 ± 1,6^b jours. The mortality at 50 µg/mL ([2]; Macrosiphum euphorbiae, 50 µg.mL^-1, read-out: mortalité larvaire) was 49%, the mortality at 100 µg/mL ([2]; Macrosiphum euphorbiae, 100 µg.mL^-1, read-out: mortalité larvaire) was 53% and the taille des pucerons ([2]; from 10 µg.mL^-1 upwards) was “réduite”. For the same molecule, the “augmentation du temps de doublement des populations” value ([2]; highest concentrations, 'près de') was roughly 4 jours, the “durée de la période pré-reproductive (augmentation)” value ([2]; increase versus control diet, at the highest concentrations) was “deux jours” and the rm ([2]; DPS2 1 µg.mL^-1, mean ± SD) was 0,16 ± 0,04^b femelles.femelles^-1.jours^-1. The rm ([2]; DPS2 10 µg.mL^-1, mean ± SD) was 0,13 ± 0,03^b femelles.femelles^-1.jours^-1, the rm ([2]; DPS2 50 µg.mL^-1, mean ± SD) was 0,09 ± 0,03^c femelles.femelles^-1.jours^-1 and the rm ([2]; DPS2 100 µg.mL^-1, mean ± SD) was 0,08 ± 0,03^c femelles.femelles^-1.jours^-1. For the same molecule, the processus de mue ([3]; DPS2 between 50 and 100 µg.mL^-1, many aphids die before leaving the old cuticle) was “affectés”, the “taux intrinsèque d'accroissement des populations (rm)” value ([3]; both aphid species, including the lowest concentration of 1 µg.mL^-1) was “réduite” and the “concentration dès laquelle les effets aphicides maximum sont obtenus” value ([3]; whatever parameter and aphid species, effects similar at 50 and 100 µg.mL^-1) was 50 µg/mL.
For allosamidine, the “activité inhibitrice contre les chitinases” value [4] is listed as “puissante activité inhibitrice”.
